Test system: Primary cultures of astrocytes
Test: Activation of astrocytes (morphological change in primary astrocyte cultures)
Format: cell-based, Fischer 344 rats
Settings: 6 hours after start of treatment, serum-free medium, microscope 200× magnification, versus polygonal flat control cells (FIG. 1/7)
Description: 1) Activation of Astrocytes
Primary cultures of astrocytes were obtained from the cerebral cortical tissue of newborn Fischer 344 rats within 24 hours after birth. The brains were dissected out of the vault of the cranium under sterile conditions, the cortical tissue (cortex) was isolated, and the cells were dissociated through a narrow-mesh wire netting. The cells were put into cell culture bottles and cultivated in serum-containing DMEM solution (contained fetal calf serum and a penicillin/streptomycin mixture) until the cells were confluent. Oligodendrocytes and microglia were removed by washing with cold buffer solution. The confluent astrocytes were then detached from the base of the culture bottles with a trypsin solution and seeded in a density of 20 000 cells/cm2 in Petri dishes on coverslips and cultivated in serum-containing medium until the cells were again confluent. Two days after confluence, the medium was replaced by serum-free medium and, after 24 hours, the medium was replaced again, likewise by serum-free medium. Twenty-four hours after the second replacement of medium, salmeterol was added. Six hours after the treatment, the astrocytes were photographed under the microscope with 200× magnification to document the morphological changes (FIG. 1/7).

## OCc1cc(C(O)CNCCCCCCOCCCCc2ccccc2)ccc1O (stereo not shown) [salmeterol]
  morphological changes of astrocytes (activation): activated, stellate and refractile astrocytes

Reference: patent US20040248984A1, “Use of $g(b)-adrenoceptor agonists for the treatment of neurodegenerative diseases” (priority 2001, published 2004)
